Key:
Assay in all cases: biochemical
Parameters in all cases: KINOMEscan competition binding panel, per cent of control
Details in all cases: read-out: %Ctrl @ 2800nM
[1] = molecular target: T1, ABL1(Q252H)-phosphorylated (Homo sapiens, UniProt P00519, Q252H)
T1 construct: phosphorylated
Outline: (§1)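 Competition binding panel (KINOMEscan) across 450 human kinases and disease-relevant mutants, run to the contractor's standard protocol. Values are % control: (test signal − positive control signal)/(negative control signal − positive control signal) × 100, with lower values indicating stronger binding.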

ACVRL1 = ACVRL1 (Homo sapiens, UniProt P37023)
Outline: as §1

AKT3 = AKT3 (Homo sapiens, UniProt Q9Y243)
Outline: as §1

CAMK1G = CAMK1G (Homo sapiens, UniProt Q96NX5)
Outline: as §1

CAMK2A = CAMK2A (Homo sapiens, UniProt Q9UQM7)
Outline: as §1

CSK = CSK (Homo sapiens, UniProt P41240)
Outline: as §1

CSNK1A1 = CSNK1A1 (Homo sapiens, UniProt P48729)
Outline: as §1

CTK = molecular target: T2, CTK (Homo sapiens, UniProt P42679)
T2 construct: gene MATK
Outline: as §1

DRAK2 = molecular target: T3, DRAK2 (Homo sapiens, UniProt O94768)
T3 construct: gene STK17B
Outline: as §1

EGFR(L858R) = EGFR(L858R) (Homo sapiens, UniProt P00533, L858R)
Outline: as §1

EPHB1 = EPHB1 (Homo sapiens, UniProt P54762)
Outline: as §1

ERK4 = molecular target: T4, ERK4 (Homo sapiens, UniProt P31152)
T4 construct: gene MAPK4
Outline: as §1

FLT3(D835H) = FLT3(D835H) (Homo sapiens, UniProt P36888, D835H)
Outline: as §1

GRK4 = GRK4 (Homo sapiens, UniProt P32298)
Outline: as §1

HASPIN = HASPIN (Homo sapiens, UniProt Q8TF76)
Outline: as §1

KIT(V559D,T670I) = KIT(V559D,T670I) (Homo sapiens, UniProt P10721, T670I/V559D)
Outline: as §1

LIMK1 = LIMK1 (Homo sapiens, UniProt P53667)
Outline: as §1

LRRK2(G2019S) = LRRK2(G2019S) (Homo sapiens, UniProt Q5S007, G2019S)
Outline: as §1

MKNK2 = MKNK2 (Homo sapiens, UniProt Q9HBH9)
Outline: as §1

MLK2 = molecular target: T5, MLK2 (Homo sapiens, UniProt Q02779)
T5 construct: gene MAP3K10
Outline: as §1

NEK1 = NEK1 (Homo sapiens, UniProt Q96PY6)
Outline: as §1

NIK = molecular target: T6, NIK (Homo sapiens, UniProt Q99558)
T6 construct: gene MAP3K14
Outline: as §1

PAK7 = molecular target: T7, PAK7 (Homo sapiens, UniProt Q9P286)
T7 construct: gene PAK5
Outline: as §1

PIK3C2G = PIK3C2G (Homo sapiens, UniProt O75747)
Outline: as §1

PYK2 = molecular target: T8, PYK2 (Homo sapiens, UniProt Q14289)
T8 construct: gene PTK2B
Outline: as §1

[2] = molecular target: T9, RSK3(Kin.Dom.2-C-terminal) (Homo sapiens, UniProt Q15349)
T9 construct: gene RPS6KA2; Kin.Dom.2-C-terminal
Outline: as §1

Sequence of CAMK2A (Q9UQM7 whole entry): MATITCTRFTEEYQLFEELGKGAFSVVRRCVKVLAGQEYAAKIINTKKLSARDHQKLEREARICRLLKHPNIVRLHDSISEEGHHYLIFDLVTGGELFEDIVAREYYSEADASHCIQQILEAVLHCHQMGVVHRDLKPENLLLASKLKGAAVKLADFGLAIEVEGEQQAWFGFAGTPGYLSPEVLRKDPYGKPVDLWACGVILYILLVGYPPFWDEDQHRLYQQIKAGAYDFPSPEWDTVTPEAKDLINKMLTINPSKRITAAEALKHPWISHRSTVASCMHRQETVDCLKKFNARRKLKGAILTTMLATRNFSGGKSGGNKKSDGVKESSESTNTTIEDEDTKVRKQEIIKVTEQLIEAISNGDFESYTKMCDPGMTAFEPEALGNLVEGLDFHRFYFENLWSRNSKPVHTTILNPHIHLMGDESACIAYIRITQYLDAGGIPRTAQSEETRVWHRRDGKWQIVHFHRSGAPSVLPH
T9 sequence (Q15349 whole entry): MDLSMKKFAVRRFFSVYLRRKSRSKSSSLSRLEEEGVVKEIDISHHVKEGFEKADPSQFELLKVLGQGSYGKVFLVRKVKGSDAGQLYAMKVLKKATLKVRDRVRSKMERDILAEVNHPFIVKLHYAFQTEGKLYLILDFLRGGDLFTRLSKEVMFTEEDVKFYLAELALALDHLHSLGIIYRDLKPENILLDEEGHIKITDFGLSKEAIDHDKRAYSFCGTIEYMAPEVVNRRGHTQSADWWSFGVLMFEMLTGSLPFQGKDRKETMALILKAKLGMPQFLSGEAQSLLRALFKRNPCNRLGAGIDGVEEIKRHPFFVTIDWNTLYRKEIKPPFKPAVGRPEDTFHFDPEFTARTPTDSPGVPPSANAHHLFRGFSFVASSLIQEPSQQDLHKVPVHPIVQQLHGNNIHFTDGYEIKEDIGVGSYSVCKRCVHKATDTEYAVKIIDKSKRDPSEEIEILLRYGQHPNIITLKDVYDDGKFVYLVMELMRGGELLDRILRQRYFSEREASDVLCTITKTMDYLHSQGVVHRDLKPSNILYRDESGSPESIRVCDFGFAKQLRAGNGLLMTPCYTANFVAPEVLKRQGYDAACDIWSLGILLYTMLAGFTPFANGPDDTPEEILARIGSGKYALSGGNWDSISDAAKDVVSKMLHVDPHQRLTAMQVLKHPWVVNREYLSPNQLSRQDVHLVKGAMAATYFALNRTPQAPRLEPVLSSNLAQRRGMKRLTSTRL
Sequence of CSNK1A1 (P48729 whole entry): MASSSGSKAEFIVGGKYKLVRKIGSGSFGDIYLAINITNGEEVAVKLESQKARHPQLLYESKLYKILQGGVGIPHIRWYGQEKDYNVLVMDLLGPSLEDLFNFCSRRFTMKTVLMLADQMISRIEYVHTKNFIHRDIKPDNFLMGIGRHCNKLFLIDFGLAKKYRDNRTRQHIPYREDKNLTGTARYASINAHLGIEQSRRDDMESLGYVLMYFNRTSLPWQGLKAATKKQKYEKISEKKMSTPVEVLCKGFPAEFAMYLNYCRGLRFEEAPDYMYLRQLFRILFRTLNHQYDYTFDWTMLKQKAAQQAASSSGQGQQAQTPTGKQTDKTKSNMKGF
T4 sequence (P31152 whole entry): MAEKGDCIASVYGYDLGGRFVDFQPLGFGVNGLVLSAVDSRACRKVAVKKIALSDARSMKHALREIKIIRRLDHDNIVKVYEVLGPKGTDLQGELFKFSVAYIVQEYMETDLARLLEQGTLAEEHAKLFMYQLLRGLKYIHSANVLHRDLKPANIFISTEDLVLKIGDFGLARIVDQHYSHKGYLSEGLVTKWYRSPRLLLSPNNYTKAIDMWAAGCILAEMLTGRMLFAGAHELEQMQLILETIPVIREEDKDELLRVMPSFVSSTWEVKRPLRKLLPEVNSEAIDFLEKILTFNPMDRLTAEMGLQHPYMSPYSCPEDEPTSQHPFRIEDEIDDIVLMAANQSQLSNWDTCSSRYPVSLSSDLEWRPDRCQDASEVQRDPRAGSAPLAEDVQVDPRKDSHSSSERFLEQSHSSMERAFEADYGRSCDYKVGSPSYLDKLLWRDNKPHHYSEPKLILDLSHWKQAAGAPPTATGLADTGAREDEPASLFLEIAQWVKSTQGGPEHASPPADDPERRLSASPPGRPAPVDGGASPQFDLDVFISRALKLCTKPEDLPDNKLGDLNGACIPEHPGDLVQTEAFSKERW
T8 sequence (Q14289 whole entry): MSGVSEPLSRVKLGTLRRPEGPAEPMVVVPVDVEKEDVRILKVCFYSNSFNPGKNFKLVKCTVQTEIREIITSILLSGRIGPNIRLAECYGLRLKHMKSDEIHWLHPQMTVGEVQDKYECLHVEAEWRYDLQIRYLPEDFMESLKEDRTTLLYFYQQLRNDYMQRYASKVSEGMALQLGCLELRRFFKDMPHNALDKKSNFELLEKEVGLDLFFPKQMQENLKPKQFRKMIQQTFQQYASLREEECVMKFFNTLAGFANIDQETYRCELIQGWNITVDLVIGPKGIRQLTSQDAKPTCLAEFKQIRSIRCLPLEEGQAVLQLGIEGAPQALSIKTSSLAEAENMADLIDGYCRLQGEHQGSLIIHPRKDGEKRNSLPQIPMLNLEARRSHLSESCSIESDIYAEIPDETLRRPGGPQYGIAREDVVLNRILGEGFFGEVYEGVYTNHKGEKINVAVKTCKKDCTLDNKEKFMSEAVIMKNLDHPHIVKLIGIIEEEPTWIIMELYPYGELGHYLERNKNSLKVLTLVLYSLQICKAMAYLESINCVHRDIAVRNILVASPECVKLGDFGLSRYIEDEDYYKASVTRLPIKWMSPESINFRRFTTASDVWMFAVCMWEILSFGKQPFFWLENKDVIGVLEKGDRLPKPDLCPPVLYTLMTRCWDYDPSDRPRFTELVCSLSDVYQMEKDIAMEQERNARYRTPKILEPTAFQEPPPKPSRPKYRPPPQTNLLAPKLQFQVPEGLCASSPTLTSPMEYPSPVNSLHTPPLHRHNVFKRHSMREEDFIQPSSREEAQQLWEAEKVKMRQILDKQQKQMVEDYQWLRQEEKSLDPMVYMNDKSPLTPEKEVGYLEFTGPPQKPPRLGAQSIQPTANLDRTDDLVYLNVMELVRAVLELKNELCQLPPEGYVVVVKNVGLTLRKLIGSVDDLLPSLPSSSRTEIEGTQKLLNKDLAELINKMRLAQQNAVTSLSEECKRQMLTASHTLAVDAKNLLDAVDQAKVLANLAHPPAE
Sequence of EGFR(L858R) (P00533 whole entry L858R): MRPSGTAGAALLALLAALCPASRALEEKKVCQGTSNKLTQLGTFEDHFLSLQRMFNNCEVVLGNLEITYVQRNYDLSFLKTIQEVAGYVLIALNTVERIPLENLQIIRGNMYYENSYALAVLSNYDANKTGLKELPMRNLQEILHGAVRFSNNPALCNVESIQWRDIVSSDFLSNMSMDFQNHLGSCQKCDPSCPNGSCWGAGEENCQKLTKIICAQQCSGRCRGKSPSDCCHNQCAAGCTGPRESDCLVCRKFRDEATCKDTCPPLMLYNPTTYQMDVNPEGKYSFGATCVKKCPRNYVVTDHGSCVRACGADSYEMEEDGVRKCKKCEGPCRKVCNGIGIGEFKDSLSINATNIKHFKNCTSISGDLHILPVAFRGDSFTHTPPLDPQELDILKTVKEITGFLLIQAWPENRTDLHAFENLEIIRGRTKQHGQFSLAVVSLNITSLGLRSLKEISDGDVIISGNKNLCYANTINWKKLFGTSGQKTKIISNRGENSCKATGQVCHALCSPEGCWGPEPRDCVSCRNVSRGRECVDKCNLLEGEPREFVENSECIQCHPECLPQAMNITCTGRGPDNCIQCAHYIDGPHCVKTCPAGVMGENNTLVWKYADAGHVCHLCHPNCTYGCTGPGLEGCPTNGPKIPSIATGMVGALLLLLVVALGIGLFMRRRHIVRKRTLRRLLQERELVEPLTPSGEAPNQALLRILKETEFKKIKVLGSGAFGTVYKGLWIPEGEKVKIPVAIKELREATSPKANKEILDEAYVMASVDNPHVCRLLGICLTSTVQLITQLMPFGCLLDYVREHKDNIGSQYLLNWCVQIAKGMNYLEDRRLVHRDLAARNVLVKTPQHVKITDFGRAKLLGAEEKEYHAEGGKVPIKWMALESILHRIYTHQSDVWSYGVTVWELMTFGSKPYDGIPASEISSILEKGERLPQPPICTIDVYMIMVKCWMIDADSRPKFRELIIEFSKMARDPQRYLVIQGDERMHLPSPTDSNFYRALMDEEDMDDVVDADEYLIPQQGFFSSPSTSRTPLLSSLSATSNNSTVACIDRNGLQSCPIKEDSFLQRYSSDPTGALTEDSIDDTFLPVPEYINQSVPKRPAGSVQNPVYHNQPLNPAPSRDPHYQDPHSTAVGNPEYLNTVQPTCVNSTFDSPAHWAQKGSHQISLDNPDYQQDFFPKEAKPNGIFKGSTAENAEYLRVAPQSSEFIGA
T2 sequence (P42679 whole entry): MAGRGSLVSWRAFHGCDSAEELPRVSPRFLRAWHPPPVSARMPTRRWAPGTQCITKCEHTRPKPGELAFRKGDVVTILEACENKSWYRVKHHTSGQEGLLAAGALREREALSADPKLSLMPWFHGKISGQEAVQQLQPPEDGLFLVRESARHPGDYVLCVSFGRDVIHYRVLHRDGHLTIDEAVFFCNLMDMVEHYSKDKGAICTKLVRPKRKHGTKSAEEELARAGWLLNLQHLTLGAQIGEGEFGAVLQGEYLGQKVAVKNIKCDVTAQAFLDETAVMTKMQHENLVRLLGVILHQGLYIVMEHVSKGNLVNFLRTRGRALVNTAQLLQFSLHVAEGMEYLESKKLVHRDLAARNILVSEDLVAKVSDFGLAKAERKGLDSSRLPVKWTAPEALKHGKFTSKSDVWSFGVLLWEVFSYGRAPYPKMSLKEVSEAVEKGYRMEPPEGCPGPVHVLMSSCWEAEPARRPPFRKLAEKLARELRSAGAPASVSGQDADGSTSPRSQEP

With `[O-][S@@+](Cc1cncs1)C(c1ccccc1)c1ccccc1` [S-CE-123, (S)-5-((Benzhydrylsulfinyl)Methyl)Thiazole] the remaining binding at 2.8 µM [1] was 84%, the remaining binding at 2.8 µM (ACVRL1) was 84% and the remaining binding at 2.8 µM (AKT3) was 99%. For the same compound, the remaining binding at 2.8 µM (CAMK1G) was 82%, the remaining binding at 2.8 µM (CAMK2A) was 93% and the remaining binding at 2.8 µM (CSK) was 98%. For the same compound, the remaining binding at 2.8 µM (CSNK1A1) was 74%, the remaining binding at 2.8 µM (CTK) was 51% and the remaining binding at 2.8 µM (DRAK2) was 95%. It also gave a remaining binding at 2.8 µM (EGFR(L858R)) of 92%, a remaining binding at 2.8 µM (EPHB1) of 100% and a remaining binding at 2.8 µM (ERK4) of 100%. For the same compound, the remaining binding at 2.8 µM (FLT3(D835H)) was 58%, the remaining binding at 2.8 µM (GRK4) was 73% and the remaining binding at 2.8 µM (HASPIN) was 95%. For the same compound, the remaining binding at 2.8 µM (KIT(V559D,T670I)) was 83%, the remaining binding at 2.8 µM (LIMK1) was 98% and the remaining binding at 2.8 µM (LRRK2(G2019S)) was 96%. The remaining binding at 2.8 µM (MKNK2) was 69%, the remaining binding at 2.8 µM (MLK2) was 96% and the remaining binding at 2.8 µM (NEK1) was 90%. It also gave a remaining binding at 2.8 µM (NIK) of 100%, a remaining binding at 2.8 µM (PAK7) of 98% and a remaining binding at 2.8 µM (PIK3C2G) of 66%. The remaining binding at 2.8 µM (PYK2) was 100% and the remaining binding at 2.8 µM [2] was 87%.

Source: paper PMC10046369, “Low-Affinity/High-Selectivity Dopamine Transport Inhibition Sufficient to Rescue Cognitive Functions in the Aging Rat” (Biomolecules, 2023)
